Values belong to the compound of their own block, whether it stands above or below them.
Target: T1, EED (Homo sapiens, UniProt O75530)
T1 construct: 2×10^5 Hela cells were injected into a 12-well plate; endogenous in cells; host or cells: HeLa
Assay: EED Proteolytic Activity Evaluation 2 (western blot, Hela cells)
Format: cell-based
Conditions: 1 nM, 10 nM, 100 nM and 1000 nM, 20 hours of treatment
Method: [Experiment 2] EED Proteolytic Activity Evaluation 2
In order to evaluate the EED proteolytic activity of the compound according to the present invention, an experiment was conducted as follows.
Specifically, 2×10^5 Hela cells were injected into a 12-well plate, and after 8 hours of stabilization, each well was treated with the example compounds to have final concentrations of 1 nM, 10 nM, 100 nM, and 1000 nM. One well was treated with the volume of DMSO contained in the sample corresponding to the highest concentration in the experimental group. After 20 hours of treatment, the cells were collected and lysed using 80 μl of SDS Lysis buffer (50 mM Tris pH8.0, 1% SDS, 1 mM EDTA, 0.5 mM PMSF, and protease inhibitor cocktail) and then sonication (30 sec on/59 sec off), 5 cycles) to prepare a cell lysate, followed by protein quantification through BCA, followed by Western blot, and the results are shown in Table 3. (Maximum EED degradation rate: A: >50%, B: 25-50%, C: <25%)

T1 sequence (O75530 whole entry): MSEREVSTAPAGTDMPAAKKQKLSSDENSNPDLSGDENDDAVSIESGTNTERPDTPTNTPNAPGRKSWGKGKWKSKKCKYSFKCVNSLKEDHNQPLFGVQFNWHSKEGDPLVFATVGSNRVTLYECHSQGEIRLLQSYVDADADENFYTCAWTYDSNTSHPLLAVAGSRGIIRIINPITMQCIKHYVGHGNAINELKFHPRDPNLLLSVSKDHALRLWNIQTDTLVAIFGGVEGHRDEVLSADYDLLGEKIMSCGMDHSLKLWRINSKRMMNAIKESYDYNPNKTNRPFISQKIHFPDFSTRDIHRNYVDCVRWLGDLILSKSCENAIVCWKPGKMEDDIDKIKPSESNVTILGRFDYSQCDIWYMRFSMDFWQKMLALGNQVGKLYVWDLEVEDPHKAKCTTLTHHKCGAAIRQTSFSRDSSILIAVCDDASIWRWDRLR

Structure (SMILES): Cc1cccc(F)c1CN1C[C@H](c2ccc(N3CCN(C(=O)CCCNc4ccc5c(c4)C(=O)N(C4CCC(=O)NC4=O)C5=O)CC3)cc2)[C@@H](N(C)C)C1 (stereo partly drawn) [Example 124, 5-((4-(4-(4-((3S,4R)-4-(dimethylamino)-1-(2-fluoro-6-methylbenzyl)pyrrolidin-3-yl)phenyl)piperazin-1-yl)-4-oxobutyl)amino)-2-(2,6-dioxopiperidin-3-yl)isoindolin-1,3-dione]
- EED degradation rate (Maximum EED degradation rate): B (B: 25-50%)

Structure (SMILES): O=C(CNc1ccc2c(c1)C(=O)N(C1CCC(=O)NC1=O)C2=O)NCCOCCOCCN1CCC(n2cc(-c3cnc(NCc4ccco4)n4cnnc34)cn2)CC1 (centres unmarked) [Example 129, 2-((2-(2,6-dioxopiperidin-3-yl)-1,3-dioxoisoindolin-5-yl)amino)-N-(2-(2-(2-(4-(4-(5-((furan-2-ylmethyl)amino)-[1,2,4]triazolo[4,3-c]pyrimidin-8-yl)-1H-pyrazol-1-yl)piperidin-1-yl)ethoxy)ethoxy)ethyl)acetamide]
- EED degradation rate (Maximum EED degradation rate): C (C: <25%)

Structure (SMILES): Cc1cccc(F)c1CN1C[C@H](c2ccc(N3CCN(CC4CCN(c5ccc6c(c5)C(=O)N(C5CCC(=O)NC5=O)C6=O)CC4)CC3)cc2)[C@@H](N(C)C)C1 (stereo partly drawn) [Example 131, 5-(4-((4-(4-((3S,4R)-4-(dimethylamino)-1-(2-fluoro-6-methylbenzyl)pyrrolidin-3-yl)phenyl)piperazin-1-yl)methyl)piperidin-1-yl)-2-(2,6-dioxopiperidin-3-yl)isoindolin-1,3-dione]
- EED degradation rate (Maximum EED degradation rate): A (A: >50%)

Structure (SMILES): Cc1cccc(F)c1CN1C[C@H](c2ccc(N3CCN(CCC4CCN(C(=O)COc5ccc6c(c5)C(=O)N(C5CCC(=O)NC5=O)C6=O)CC4)CC3)cc2)[C@@H](N(C)C)C1 (stereo partly drawn) [Example 150, 5-(2-(4-(2-(4-(4-((3S,4R)-4-(dimethylamino)-1-(2-fluoro-6-methylbenzyl)pyrrolidin-3-yl)phenyl)piperazin-1-yl)ethyl)piperidin-1-yl)-2-oxoethoxy)-2-(2,6-dioxopiperidin-3-yl)isoindolin-1,3-dione]
- EED degradation rate (Maximum EED degradation rate): A (A: >50%)

Structure (SMILES): Cc1cccc(F)c1CN1C[C@H](c2ccc(N3CCN(C(=O)CC4CCN(c5ccc6c(c5)C(=O)N(C5CCC(=O)NC5=O)C6=O)CC4)CC3)cc2)[C@@H](N(C)C)C1 (stereo partly drawn) [Example 132, 5-(4-(2-(4-(4-((3S,4R)-4-(dimethylamino)-1-(2-fluoro-6-methylbenzyl)pyrrolidin-3-yl)phenyl)piperazin-1-yl)-2-oxoethyl)piperidin-1-yl)-2-(2,6-dioxopiperidin-3-yl)isoindolin-1,3-dione]
- EED degradation rate (Maximum EED degradation rate): A (A: >50%)

Structure (SMILES): Cc1cccc(F)c1CN1C[C@H](c2ccc(N3CCN(CCOCCOCCOCCNC(=O)CNc4ccc5c(c4)C(=O)N(C4CCC(=O)NC4=O)C5=O)CC3)cc2)[C@@H](N(C)C)C1 (stereo partly drawn) [Example 135, N-(2-(2-(2-(2-(4-(4-((3S,4R)-4-(dimethylamino)-1-(2-fluoro-6-methylbenzyl)pyrrolidin-3-yl)phenyl)piperazin-1-yl)ethoxy)ethoxy)ethoxy)ethyl)-2-((2-(2,6-dioxopiperidin-3-yl)-1,3-dioxoisoindolin-5-yl)amino)acetamide]
- EED degradation rate (Maximum EED degradation rate): B (B: 25-50%)

Structure (SMILES): Cc1cccc(F)c1CN1C[C@H](c2ccc(N3CCN(CC4CCN(CC5CCN(c6ccc7c(c6)C(=O)N(C6CCC(=O)NC6=O)C7=O)CC5)CC4)CC3)cc2)[C@@H](N(C)C)C1 (stereo partly drawn) [Example 134, 5-(4-((4-((4-(4-((3S,4R)-4-(dimethylamino)-1-(2-fluoro-6-methylbenzyl)pyrrolidin-3-yl)phenyl)piperazin-1-yl)methyl)piperidin-1-yl)methyl)piperidin-1-yl)-2-(2,6-dioxopiperidin-3-yl)isoindolin-1,3-dione]
- EED degradation rate (Maximum EED degradation rate): B (B: 25-50%)

Continued, values first:

- EED degradation rate (Maximum EED degradation rate): A (A: >50%)
Structure (SMILES): Cc1cccc(F)c1CN1C[C@H](c2ccc(N3CCN(C(=O)CCCCCCCNc4cccc5c4C(=O)N(C4CCC(=O)NC4=O)C5=O)CC3)cc2)[C@@H](N(C)C)C1 (stereo partly drawn) [Example 125, 4-((8-(4-(4-((3S,4R)-4-(dimethylamino)-1-(2-fluoro-6-methylbenzyl)pyrrolidin-3-yl)phenyl)piperazin-1-yl)-8-oxooctyl)amino)-2-(2,6-dioxopiperidin-3-yl)isoindolin-1,3-dione]

- EED degradation rate (Maximum EED degradation rate): A (A: >50%)
Structure (SMILES): Cc1cccc(F)c1CN1C[C@H](c2ccc(N3CCN(CCC4CCN(c5cccc6c5C(=O)N(C5CCC(=O)NC5=O)C6=O)CC4)CC3)cc2)[C@@H](N(C)C)C1 (stereo partly drawn) [Example 153, 4-(4-(2-(4-(4-((3S,4R)-4-(dimethylamino)-1-(2-fluoro-6-methylbenzyl)pyrrolidin-3-yl)phenyl)piperazin-1-yl)ethyl)piperidin-1-yl)-2-(2,6-dioxopiperidin-3-yl)isoindolin-1,3-dione]

- EED degradation rate (Maximum EED degradation rate): B (B: 25-50%)
Structure (SMILES): Cc1cccc(F)c1CN1C[C@H](c2ccc(N3CCN(C(=O)CCC4CCN(C(=O)COc5ccc6c(c5)C(=O)N(C5CCC(=O)NC5=O)C6=O)CC4)CC3)cc2)[C@@H](N(C)C)C1 (stereo partly drawn) [Example 147, 5-(2-(4-(3-(4-(4-((3S,4R)-4-(dimethylamino)-1-(2-fluoro-6-methylbenzyl)pyrrolidin-3-yl)phenyl)piperazin-1-yl)-3-oxopropyl)piperidin-1-yl)-2-oxoethoxy)-2-(2,6-dioxopiperidin-3-yl)isoindolin-1,3-dione]

- EED degradation rate (Maximum EED degradation rate): B (B: 25-50%)
Structure (SMILES): Cc1cccc(F)c1CN1C[C@H](c2ccc(N3CCN(C(=O)CCC4CCN(C(=O)CNc5cccc6c5C(=O)N(C5CCC(=O)NC5=O)C6=O)CC4)CC3)cc2)[C@@H](N(C)C)C1 (stereo partly drawn) [Example 149, 4-((2-(4-(3-(4-(4-((3S,4R)-4-(dimethylamino)-1-(2-fluoro-6-methylbenzyl)pyrrolidin-3-yl)phenyl)piperazin-1-yl)-3-oxopropyl)piperidin-1-yl)-2-oxoethyl)amino)-2-(2,6-dioxopiperidin-3-yl)isoindolin-1,3-dione]

- EED degradation rate (Maximum EED degradation rate): C (C: <25%)
Structure (SMILES): Cc1cccc(F)c1CN1C[C@H](c2ccc(N3CCN(C(=O)CC4CCN(c5cccc6c5C(=O)N(C5CCC(=O)NC5=O)C6=O)CC4)CC3)cc2)[C@@H](N(C)C)C1 (stereo partly drawn) [Example 142, 4-(4-(2-(4-(4-((3S,4R)-4-(dimethylamino)-1-(2-fluoro-6-methylbenzyl)pyrrolidin-3-yl)phenyl)piperazin-1-yl)-2-oxoethyl)piperidin-1-yl)-2-(2,6-dioxopiperidin-3-yl)isoindolin-1,3-dione]

- EED degradation rate (Maximum EED degradation rate): A (A: >50%)
Structure (SMILES): Cc1cccc(F)c1CN1C[C@H](c2ccc(N3CCN(C(=O)CCC4CCN(c5ccc6c(c5)C(=O)N(C5CCC(=O)NC5=O)C6=O)CC4)CC3)cc2)[C@H](N(C)C)C1 (stereo partly drawn) [Example 133, 5-(4-(3-(4-(4-((3S,4S)-4-(dimethylamino)-1-(2-fluoro-6-methylbenzyl)pyrrolidin-3-yl)phenyl)piperazin-1-yl)-3-oxopropyl)piperidin-1-yl)-2-(2,6-dioxopiperidin-3-yl)isoindolin-1,3-dione]

- EED degradation rate (Maximum EED degradation rate): B (B: 25-50%)
Structure (SMILES): Cc1cccc(F)c1CN1C[C@H](c2ccc(N3CCN(C(=O)CCCNc4cccc5c4C(=O)N(C4CCC(=O)NC4=O)C5=O)CC3)cc2)[C@@H](N(C)C)C1 (stereo partly drawn) [Example 123, 4-((4-(4-(4-((3S,4R)-4-(dimethylamino)-1-(2-fluoro-6-methylbenzyl)pyrrolidin-3-yl)phenyl)piperazin-1-yl)-4-oxobutyl)amino)-2-(2,6-dioxopiperidin-3-yl)isoindolin-1,3-dione]

Reference: patent publication US20220105188A1, “TARGET PROTEIN EED DEGRADATION-INDUCING DEGRADUCER, PREPARATION METHOD THEREOF, AND PHARMACEUTICAL COMPOSITION FOR PREVENTING OR TREATING DISEASES RELATED TO EED, EZH2, OR PRC2, COMPRISING SAME AS ACTIVE INGREDIENT” (KOREA RESEARCH INSTITUTE OF CHEMICAL TECHNOLOGY, priority 2019, published 2022)
